One data set has as its system Sheep erythrocytes. Kind of data set: Hemolysis evaluated visually after 1 h incubation at 37° C. Type of data set: cell-based. To be noted: visual.
The test system of another data set is RAW 264.7 cells. The data set can be described thus: Cytotoxicity by 3H-thymidine incorporation in murine RAW 264.7 cells. The method, then:
(§1) The final aldehyde concentrations in the test were 0.01-34 μmol/mL.
(§2) The cytotoxicity of dextran derivatives was evaluated in murine RAW 264.7 cells, an internationally recognized cell line for examination of drug effects.
(§3) Growth inhibition was estimated by the ^3H-thymidine incorporation method. Cells were cultured in flat-bottom flasks at 37° C. Before each experiment the cells were washed and removed by trypsin treatment or scraped from the flask bottom, and an appropriate volume was centrifuged, resuspended, and diluted in growth medium to the desired cell concentration. […] By use of an automated dispenser, 200 μL of cell suspension was added to each well of a microtiter plate. After incubation overnight, the appropriate drug concentration, in triplicate, was added to test wells. Drug-free medium was used as control. ^3H-Thymidine (0.5 μCi) in 20 μL of medium was added the next day, and the plate was harvested and read by liquid scintillation counter (LKB, Finland) after an additional 24 h. The percent growth inhibition of the cells by the drug tested was calculated as [100−(count with drug/control count)×100].
(§4) Dextran with 50% oxidation was used as a positive toxicity control.
(§5) Drug effect and the IC50 were defined as previously described.
On the technique in general: Incorporation of labelled thymidine or its analogues reports DNA synthesis.

Data set [1] concerns Leishmania donovani IS promastigotes. Kind of data set: In vitro activity against Leishmania donovani promastigotes (3H-thymidine incorporation). Format: cell-based. How it is done: The in vitro antiparasitic activity was evaluated against Leishmania donovani IS promastigotes. This strain, isolated from a patient in Sudan, was received from the International Reference Center of the Kuvin Center for Infectious Diseases in the Hebrew University of Jerusalem.
Serial dilutions of the tested agents were prepared in RPMI 1640 growth medium. The final AmB concentration in the test ranged from 0.2 to 6 μg/mL. Wells containing drug-free medium served as control. […] Briefly, 96-well plates were seeded with 60,000 promastigotes/well in 200 μL of medium, and test solutions were added 3 h later. After 24 h of incubation, 0.5 μCi/well ^3H-thymidine (in 10% FCS medium) was added, and the cultures were harvested after an additional 24 h. During the experiment the cells were incubated at 25° C. in air. The drug effect and the IC50 of the conjugates were estimated as described before (Example 7).

Data set [2] concerns RAW 264.7 cells (growth, thymidine incorporation). The data set can be described thus: Cytotoxicity by 3H-thymidine incorporation in murine RAW 264.7 cells. The settings on record: mouse, RAW 264.7 cells. The method, then: as §1, §2, §3, §4, §5
Data set [3] is described as follows: In vitro release of conjugated drug into solution/buffer. Format: physicochemical. The settings on record: after 12 hours in buffer at pH7.4 at 37° C. The method, then:
About 10% of the conjugated drug was released after 12 hours in a buffer at pH7.4 at 37° C.

In data set [4] the test system is Staphylococcus Aureus and E. Coli. Kind of data set: Antimicrobial activity, filter paper disc on seeded agar plate. Type of data set: cell-based. To be noted: 24 hours at 37° C.; 6 mm filter paper; equivalent amounts of drug.
Method: The antimicrobial activity of these conjugates was determined as follows: Saline solutions of equivalent amounts of the drug in free form or the imine AG conjugate were absorbed onto a circular filter paper (6 mm in diameter) and placed on a seeded agar plate with Staphylococcus Aureus (10^5/ml) and E. Coli incubated for 24 hours at 37° C.

In the data set with Sheep erythrocytes, `C[C@@H]1[C@H](O)[C@@H](C)/C=C/C=C/C=C/C=C/C=C/C=C/C=C/[C@H](O[C@@H]2O[C@H](C)[C@@H](O)[C@H](N)[C@@H]2O)C[C@@H]2O[C@](O)(C[C@@H](O)C[C@@H](O)[C@H](O)CC[C@@H](O)C[C@@H](O)CC(=O)O[C@H]1C)C[C@H](O)[C@H]2C(=O)O` [Free AmB, Amphotericin B] displayed a Hemolysis of 16 μgAmB/ml. In the data set with RAW 264.7 cells (AmB and dextran-AmB conjugates, equivalent AmB amounts), the “toxicity to cells” value was “extremely toxic”. Also, the “Toxicity IC50” value in the data set on RAW 264.7 cells (murine RAW 264.7 cell line, 3H-thymidine incorporation) was 9 μgAmB/ml. Moreover, the “toxicity/activity to parasites” value in data set [1] (AmB and dextran-AmB conjugates) is reported as “extremely toxic”. For the same compound, in data set [1] (Leishmania donovani, 3H-thymidine incorporation), the “Antiparasitic activity IC50” value is on record as 0.05 μgAmB/ml.
Regarding `O=CCCCC=O` [Glutaraldehyde], the IC50 (in general, the point on the concentration scale where inhibition reaches its midpoint) at 48 h in data set [2] was less than 0.15 µg/mL.
Take Native Dextran: the “IC50 (in vitro cytotoxicity of modified dextran)” value in the data set on RAW 264.7 cells was more than 5000 µg/mL.
Regarding “Somatostatin-Arabinogalactan Ethanolamine Conjugate: somatostatin conjugated to 32% oxidized AG, reacted with excess ethanolamine”, in data set [3], the conjugated drug released entry is given as “About 10%”.
Turning to gentamicin, the inhibition zone in data set [4] is reported as more than 20 mm.
